Tests used:
[1] = DSC doublet peak area (α-structure) of hair after heat cycles; conditions: bleached/permed hair, 12 heat cycles, 0.06 M
Method: Normal blonde hair was bleached with Clairol Basic White Bleach (40 volume H2O2) for 20 min at standard room temperature and humidity. The bleached swatches were rinsed with tap water, and soaked in an excess of deionized water for 2 hours. The swatches were air-dried and equilibrated for 48 hours prior to further treatment. Some of the bleached swatches were subsequently “permed” using a Reforming Lotion (10% TGA, pH 8.8, 20 minutes) and then neutralized with 2% H2O2, pH 3 (5 minutes). The bleached/permed swatches were rinsed with tap water, and soaked in an excess of deionized water for 2 hours. The swatches were air-dried and equilibrated for 48 hours prior to further treatment. The swatches that were heat treated were treated with 0.06M solutions of hexoses and pentoses for 10 min at 45° C. and then were heated for 12 cycles. The swatches were rinsed after the heat application. In the DSC tests, finely cut hair (4-5 mg) was crimped in an aluminum pan that was punctured prior to each run. The samples were heated from 25° C. to 300° C., at a scanning rate of 20° C./min, with 5 runs per treatment. The results were averaged. Normal blonde hair was divided in two batches. The hair from the first batch was bleached with Clairol Basic White Bleach, 40 volume H2O2, for 20 min at room temperature and humidity. The hair from the second batch was first bleached as above, and then permed: Reforming lotion-10% Thioglycolic acid, pH 8.8, 20 min; neutralizer-2% hydrogen peroxide, 5 min. The oxidatively damaged hair was equilibrated for 24 hours prior to further testing. Both the bleached and the bleached/permed hair were subjected to heat treatment, as in Example 2. The heat treatment experiment involved 12 heat cycles including application of sugar or control solution before each heat application, and rinsing after the heat application. Deionized water was used as a control treatment. After the heat experiment, the hair was rinsed in water, air-dried, and equilibrated for 24 h in the humidity chamber at 25° C. and 50% RH prior to further testing. The effect of the hexoses vs. pentoses on the dry tensile strength (INSTRON) and the alpha-structure (doublet peak area, DSC) was tested on the bleached hair (Table 13). The effect of a hexose (D-glucose) vs. a pentose (D-Xylose) on wet tensile strength (DIA-STRON) was tested both on the bleached and the bleached/permed hair (Table 14). Application of 0.06M solutions of pentoses protected the bleached and the bleached/permed hair against thermal damage (α-structure; wet and dry tensile strength).

[2] = Dry tensile strength (Instron) after heat cycles; conditions: for protection of dry tensile strength, in words: hair treated 5 cycles at 45° C. and at 130° C.
Method: (§1) Normal blonde hair was bleached with Clairol Basic White Bleach (40 volume H2O2) for 20 min at standard room temperature and humidity. The bleached swatches were rinsed with tap water, and soaked in an excess of deionized water for 2 hours. The swatches were air-dried and equilibrated for 48 hours prior to further treatment. Some of the bleached swatches were subsequently “permed” using a Reforming Lotion (10% TGA, pH 8.8, 20 minutes) and then neutralized with 2% H2O2, pH 3 (5 minutes). The bleached/permed swatches were rinsed with tap water, and soaked in an excess of deionized water for 2 hours. The swatches were air-dried and equilibrated for 48 hours prior to further treatment. The swatches that were heat treated were treated with 0.06M solutions of hexoses and pentoses for 10 min at 45° C. and then were heated for 12 cycles. The swatches were rinsed after the heat application.
(§2) Tensile strength was determined using both the Instron (50 dry fibers per tests) and the Dia-Stron (100 wet fibers per test), with the stretching rate of 100 mm/min. The following parameters were determined: Young's Modulus (N/m^2), Work to stretch 25% (J/m^2); Extension to Break (degree of elongation) (%); Work to Break (J/m^2).
(§3) Normal blonde hair was bleached with Clairol Basic White Bleach, 40 volume H2O2, for 20 min at room temperature. One batch of normal and bleached hair swatches underwent five heat cycles at 130° C., where one treatment cycle involved the following steps (1-4):
(§4) 1. The swatches were treated with 0.06 M solutions of monosaccharides in deionized water (about 1 wt %) for 10 min at 45° C.
(§5) 2. The treated swatches were blow-dried for 1 min.
(§6) 3. The heat was applied for 1 min in the form of a flat hair iron Windmere “Solid Gold” (130° C.).
(§7) 4. The swatches were rinsed and blot-dried with a paper-towel.
(§8) The treatment solutions included four pentoses (D-xylose, D-arabinose, D-lyxose, and D-ribose, 1% each) and one hexose (1.2% D-glucose). Deionized water was used as a control treatment. After the heat experiment, the hair was rinsed in water, air-dried, and equilibrated for 24 hours in the humidity chamber at 25° C. and 50% RH prior to further testing. These swatches are referred to as treated at 130° C.
(§9) A second batch of normal and bleached hair swatches were treated in a similar way and blow-dried, without application of the hot iron. The treatment was also repeated 5 times, the swatches from the second batch are referred to as treated at 45° C.
(§10) Both the bleached and the bleached/permed hair were subjected to heat treatment, as in Example 2. The heat treatment experiment involved 12 heat cycles including application of sugar or control solution before each heat application, and rinsing after the heat application. Deionized water was used as a control treatment.
(§11) After the heat experiment, the hair was rinsed in water, air-dried, and equilibrated for 24 h in the humidity chamber at 25° C. and 50% RH prior to further testing. The effect of the hexoses vs. pentoses on the dry tensile strength (INSTRON) and the alpha-structure (doublet peak area, DSC) was tested on the bleached hair (Table 13). The effect of a hexose (D-glucose) vs. a pentose (D-Xylose) on wet tensile strength (DIA-STRON) was tested both on the bleached and the bleached/permed hair (Table 14). Application of 0.06M solutions of pentoses protected the bleached and the bleached/permed hair against thermal damage (α-structure; wet and dry tensile strength).

[3] = DSC doublet peak area (α-structure) of hair after heat cycles; conditions: for Doublet Peak Area: 0.06 M solutions
Method: as §1
(§12) In the DSC tests, finely cut hair (4-5 mg) was crimped in an aluminum pan that was punctured prior to each run. The samples were heated from 25° C. to 300° C., at a scanning rate of 20° C./min, with 5 runs per treatment. The results were averaged.
as §3, §4, §5, §6, §7, §8, §9
Normal blonde hair was divided in two batches. The hair from the first batch was bleached with Clairol Basic White Bleach, 40 volume H2O2, for 20 min at room temperature and humidity. The hair from the second batch was first bleached as above, and then permed: Reforming lotion-10% Thioglycolic acid, pH 8.8, 20 min; neutralizer-2% hydrogen peroxide, 5 min. The oxidatively damaged hair was equilibrated for 24 hours prior to further testing.
as §10, §11

[4] = as above; conditions: normal blonde hair
Method: as §1, §12, §3, §4, §5, §6, §7, §8, §9
Normal blonde hair was subjected to 12 heat cycles, as described in Example 2, using the following treatment solutions: 0.1% D-Xylose (pentose), 0.1% D-Erythrose (tetrose), and 0.1% D-Glyceraldehyde (triose). Each of the C3 to C5 monosaccharides was effective in protecting or reducing the damage to the α-structure of the hair, as compared to water treatment (Table 15).
Normal blonde hair was subjected to 12 heat cycles, as described in Example 2, using 0.1 wt % of the pentose amine derivative, D-Lyxosylimine in deionized water.

[5] = Dry tensile strength (Instron) after heat cycles; conditions: normal blonde hair, 5 heat cycles at 130° C., 0.06 M solutions, n = 50 fibers
Method: as §2, §3, §4, §5, §6, §7, §8, §9

[6] = bleached hair after 12 heat cycles, 0.06 M solutions, n = 100 fibers
[7] = dry bleached hair, 12 heat cycles, 0.06 M, INSTRON, n = 50 fibers
[8] = bleached hair after 12 heat cycles
[9] = dry, bleached hair, 5 cycles at 45° C., 0.06 M solutions, n = 50 fibers
[10] = 5 heat cycles at 130° C., 0.06 M solutions
[11] = bleached hair, 5 cycles at 45° C.
[12] = bleached hair, 5 heat cycles at 130° C.
[13] = 0.1 wt % solutions, 12 heat cycles at 130° C.
[14] = bleached hair, 5 heat cycles at 130° C., 0.06 M solutions, n = 50 fibers

Compound | Work 25% (Dry) [2, 6] | Extension-Break [2, 7] | Work 25% [2, 7] | Work-Break [2, 7] | Young's Modulus [2, 7] | Doublet Peak Area [3, 8] | other results
O=CC[C@H](O)[C@H](O)CO [2-Deoxy-D-ribose] | 1,032 +/− 163 J/m^2 | 55.35 +/− 7.52% | 1,032 +/− 163 J/m^2 | 2,872 +/− 709 J/m^2 | 5,111 +/− 871 MN/m^2 | 9.63 +/− 2.87 J/g hair | Normalized area [1]: 6.43 +/− 1.87 J/g hair; protection effect (normalized α-structure peak area), in words ([3]; bleached and bleached/permed hair, 12 heat cycles): protection effect was found; Normalized area ([3]; bleached hair, 12 heat cycles, 0.06 M): 9.63 +/− 2.87 J/g hair
O=C[C@@H](O)[C@H](O)[C@H](O)CO [D-Arabinose] |  |  |  |  |  |  | Work 25% [2, 9]: 1,147 +/− 191 J/m^2; protection of dry tensile strength, in words [2]: improved protection both at 45 °C and at 130 °C; Doublet Peak Area [4, 10]: 11.33 +/− 2.30 J/g hair; Work 25% (Dry) [5]: 1,060 +/− 180 J/m^2; Doublet Peak Area [3, 11]: 7.78 +/− 1.07 J/g hair; Doublet Peak Area [3, 12]: 8.22 +/− 0.90 J/g hair
O=C[C@H](O)[C@H](O)CO [D-Erythrose] |  |  |  |  |  |  | Doublet Peak Area [4, 13]: 13.20 +/− 7.15 J/g hair
O=C(CO)[C@@H](O)[C@H](O)[C@H](O)CO [D-Fructose] | 885.0 +/− 161.0 J/m^2 | 59.89 +/− 8.11% | 885 +/− 161 J/m^2 | 2,644 +/− 644 J/m^2 | 4,492 +/− 852 MN/m^2 | 6.51 +/− 1.71 J/g hair | 
O=C[C@H](O)[C@@H](O)[C@@H](O)[C@H](O)CO [D-Galactose] | 945.8 +/− 168.9 J/m^2 | 58.82 +/− 6.21% | 945.8 +/− 168.9 J/m^2 | 2,696 +/− 533 J/m^2 | 4,724 +/− 913 MN/m^2 | 5.39 +/− 2.29 J/g hair | 
O=C[C@H](O)CO [D-Glyceraldehyde] |  |  |  |  |  |  | Doublet Peak Area [4, 13]: 13.47 +/− 3.03 J/g hair
O=C[C@@H](O)[C@@H](O)[C@H](O)CO [D-Lyxose] |  |  |  |  |  |  | Work 25% (Dry) [2, 14]: 819.9 +/− 162.7 J/m^2; Work 25% [2, 9]: 1,157 +/− 228 J/m^2; protection of dry tensile strength, in words [2]: better improved protection at 45 °C; Doublet Peak Area [4, 10]: 8.35 +/− 0.81 J/g hair; Work 25% (Dry) [5]: 883.4 +/− 174.2 J/m^2; Doublet Peak Area [3, 11]: 8.26 +/− 3.02 J/g hair; Doublet Peak Area [3, 12]: 6.23 +/− 0.59 J/g hair
O=C[C@@H](O)[C@@H](O)[C@H](O)[C@H](O)CO [D-Mannose] | 914.9 +/− 122.0 J/m^2 | 57.33 +/− 5.98% | 914.9 +/− 122 J/m^2 | 2,595 +/− 433 J/m^2 | 4,746 +/− 688 MN/m^2 | 5.47 +/− 1.27 J/g hair | 
O=C[C@H](O)[C@H](O)[C@H](O)CO [D-Ribose] |  |  |  |  |  |  | Work 25% (Dry) [2, 14]: 1,064 +/− 171.1 J/m^2; Work 25% [2, 9]: 1,237 +/− 204 J/m^2; protection of dry tensile strength, in words [2]: improved protection both at 45 °C and at 130 °C; Doublet Peak Area [3, 11]: 7.80 +/− 1.87 J/g hair; Doublet Peak Area [3, 12]: 9.27 +/− 2.81 J/g hair
C[C@H](O)[C@@H](O)[C@@H](O)[C@H](O)C=O [L-Fucose] | 838.2 +/− 134.5 J/m^2 | 57.01 +/− 6.18% | 838.2 +/− 134.5 J/m^2 | 2,346 +/− 543 J/m^2 | 4,331 +/− 860 MN/m^2 | 5.26 +/− 1.59 J/g hair | 
D-Lyxosylimine |  |  |  |  |  |  | Doublet Peak Area ([4]; 0.1 wt % Lyxosylimine, 12 heat cycles at 130° C.): 11.49 +/− 3.56 J/g hair; protection of the α-structure as compared to water treatment, in words ([4]; 0.1 wt % solutions, 12 heat cycles): protected the α-structure hair

— US7815900B1, “Use of C3-C5 monosaccharides to protect keratinous fibers” (L'Oréal S.A., priority 2000, dated 2010)
